Assay results taken from patent US7678918B2, “Intermediates for imidazonaphthyridines” (3M Innovative Properties Company, priority 1997, dated 2010).

Key:
[1] = tested on: interferon α; experiment: Interferon (α) Induction in Human Cells (PBM's, 48 hours, A549 bioassay); assay type: cell-based; set-up: key: +: indicates that the compound induced interferon α at that particular concentration; −: indicates that the compound did not induce interferon α at that particular concentration; ±: indicates that the results were equivocal at that particular concentration; settings: 48 hours incubation
Description: An in vitro human blood cell system was used to assess interferon induction by compounds of the invention. Activity is based on the measurement of interferon secreted into culture media. Interferon is measured by bioassay.
Whole blood was collected by venipuncture into EDTA vacutainer tubes. Peripheral blood mononuclear cells (PBM's) were separated from whole blood by using either LeucoPREP™ Brand Cell Separation Tubes (available from Becton Dickinson) or Ficoll-Paque® solution (available from Pharmacia LKB Biotechnology Inc, Piscataway, N.J.). The PBM's were suspended at 1×10^6/mL in RPMI 1640 media (available from GIBCO, Grand Island, N.Y.) containing 25 mM HEPES (N-2-hydroxyethylpiperazine-N′-2-ethanesulfonic acid) and L-glutamine (1% penicillin-streptomycin solution added) with 10% heat inactivated (56° C. for 30 minutes) autologous serum added. 200 μL portions of PBM suspension were added to 96 well (flat bottom) MicroTest III sterile tissue culture plates.
The compounds were solubilized in ethanol, dimethyl sulfoxide or tissue culture water then diluted with tissue culture water, 0.01N sodium hydroxide or 0.01N hydrochloric acid (The choice of solvent will depend on the chemical characteristics of the compound being tested.). Ethanol or DMSO concentration should not exceed a final concentration of 1% for addition to the culture wells. Compounds were initially tested in a concentration range of from about 0.1 μg/mL to about 5 μg/mL. Compounds which show induction at a concentration of 0.5 μg/mL were then tested in a wider concentration range.
The solution of test compound was added in a volume (less than or equal to 50 μL) to the wells containing 200 μL of diluted whole blood or of PBM's in media. Solvent and/or media was added to control wells (wells with no test compound) and as needed to adjust the final volume of each well to 250 μL. The plates were covered with plastic lids, vortexed gently and then incubated for 48 hours at 37° C. with a 5% carbon dioxide atmosphere.
Following incubation, the plates were covered with parafilm and then centrifuged at 1000 rpm for 10 to 15 minutes at 4° C. in a Damon IEC Model CRU-5000 centrifuge. Media (about 200 μL) was removed from 4 to 8 wells and pooled into 2 mL sterile freezing vials. Samples were maintained at −70° C. until analysis.
Interferon was determined by bioassay using A549 human lung carcinoma cells challenged with encephalomyocarditis. The details of the bioassay method have been described by G. L. Brennan and L. H. Kronenberg in “Automated Bioassay of Interferons in Micro-test Plates”, Biotechniques, June/July 78, 1983, incorporated herein by reference. Briefly stated the method is as follows: interferon dilutions and A549 cells are incubated at 37° C. for 12 to 24 hours. The incubated cells are infected with an inoculum of encephalomyocarditis virus. The infected cells are incubated for an additional period at 37° C. before quantifying for viral cytopathic effect. The viral cytopathic effect is quantified by staining followed by spectrophotometric absorbance measurements. Results are expressed as alpha reference units/mL based on the value obtained for NIH HU IF-L standard. The interferon was identified as essentially all interferon alpha by testing in checkerboard neutralization assays against rabbit anti-human interferon (beta) and goat anti-human interferon (alpha) using A549 cell monolayers challenged with encephalomyocarditis virus.

[2] = tested on: IFN; experiment: Cytokine Induction in Human Cells: interferon (IFN) secreted by PBMCs, A549/encephalomyocarditis bioassay; assay type: cell-based; settings: 18 to 24 hours; note: call rule not given here
Method in brief: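 Human PBMCs from healthy donors at 1.5-2×10^6 cells/mL in RPMI with 10% FBS, exposed to compounds (typically 0.1 to 100 μM, ≤1% DMSO) for 18 to 24 h at 37° C. Secreted IFN measured by A549/encephalomyocarditis virus cytopathic-effect bioassay, in alpha reference units/mL against NIH human leukocyte IFN standard.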

[3] = tested on: TNF; experiment: Cytokine Induction in Human Cells: tumor necrosis factor (TNF) secreted by PBMCs, ELISA; assay type: cell-based; settings: 18 to 24 hours; note: call rule not given here
Method in brief: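 Human donor PBMCs at 1.5-2×10^6 cells/mL in RPMI with 10% FBS were exposed to compound, generally at 0.1 to 100 μM (≤1% DMSO final), for 18 to 24 h at 37 °C. Secreted TNF in supernatant was measured by ELISA and reported as pg/mL.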

In the case of `CC(C)Cn1cnc2c(N)nc3c(c21)NCCC3` [Example 33, 6,7,8,9-Tetrahydro-1-(2-methylpropyl)-1H-imidazo[4,5-c][1,5]naphthyridin-4-amine], the melting point is reported as 222 to 226 °C, the “Interferon (α) Induction in Human Cells” value ([1]; Dose Concentration 0.01 μg/mL) is reported as “−” and the “Interferon (α) Induction in Human Cells” value ([1]; Dose Concentration 0.05 μg/mL) is reported as “−”. The “Interferon (α) Induction in Human Cells” value ([1]; Dose Concentration 0.10 μg/mL) was “−”, the “Interferon (α) Induction in Human Cells” value ([1]; Dose Concentration 0.50 μg/mL) was “−” and the “Interferon (α) Induction in Human Cells” value ([1]; Dose Concentration 1.0 μg/mL) was “−”. For the same compound, the “Interferon (α) Induction in Human Cells” value ([1]; Dose Concentration 5.0 μg/mL) was “+”, the “Interferon (α) Induction in Human Cells” value ([1]; Dose Concentration 10.0 μg/mL) was “+” and the “Interferon (α) Induction in Human Cells” value ([1]; Dose Concentration 25.0 μg/mL) was “+”. For the same compound, the “Interferon (α) Induction in Human Cells” value ([1]; Dose Concentration 50.0 μg/mL) was “+”, the IFN induction ([2]; Dose Concentration 1.0 μM) was “+” and the IFN induction ([2]; Dose Concentration 10.0 μM) was “+”. The IFN induction ([2]; Dose Concentration 100.0 μM) was “+”, the TNF induction ([3]; Dose Concentration 1.0 μM) was “−” and the TNF induction ([3]; Dose Concentration 10.0 μM) was “−”. For the same compound, the TNF induction ([3]; Dose Concentration 100.0 μM) was “−”.

For `Cc1nc2c(N)nc3cccnc3c2n1CC(C)C` [Example 36, 2-Methyl-1-(2-methylpropyl)-1H-imidazo[4,5-c][1,5]naphthyridin-4-amine], the melting point was 228 to 230 °C, the “Interferon (α) Induction in Human Cells” value ([1]; Dose Concentration 0.01 μg/mL) was “−” and the “Interferon (α) Induction in Human Cells” value ([1]; Dose Concentration 0.05 μg/mL) was “+”. The “Interferon (α) Induction in Human Cells” value ([1]; Dose Concentration 0.10 μg/mL) was “+”, the “Interferon (α) Induction in Human Cells” value ([1]; Dose Concentration 0.50 μg/mL) was “+” and the “Interferon (α) Induction in Human Cells” value ([1]; Dose Concentration 1.0 μg/mL) was “+”. For the same compound, the “Interferon (α) Induction in Human Cells” value ([1]; Dose Concentration 5.0 μg/mL) was “+”, the “Interferon (α) Induction in Human Cells” value ([1]; Dose Concentration 10.0 μg/mL) was “+” and the “Interferon (α) Induction in Human Cells” value ([1]; Dose Concentration 25.0 μg/mL) was “+”. For the same compound, the “Interferon (α) Induction in Human Cells” value ([1]; Dose Concentration 50.0 μg/mL) was “+”, the IFN induction ([2]; Dose Concentration 1.0 μM) was “+” and the IFN induction ([2]; Dose Concentration 10.0 μM) was “+”. For the same compound, the IFN induction ([2]; Dose Concentration 100.0 μM) was “+”, the TNF induction ([3]; Dose Concentration 1.0 μM) was “−” and the TNF induction ([3]; Dose Concentration 10.0 μM) was “+”. For the same compound, the TNF induction ([3]; Dose Concentration 100.0 μM) was “−”.
